Data taken from US20230048132A1, “CYCLIN-DEPENDENT KINASE INHIBITORS” (SPV THERAPEUTICS INC., priority 2018, published 2023).
pIC50: −log10 of the molar value. Read-outs that look alike come from different tables or passages of the source.

Experiments:
Assay in all cases: CDK inhibition assay (microfluidic LabChip, IC50 format)
[1] = molecular target: CDK7 CyclinH (Homo sapiens, UniProt P50613); format: biochemical; conditions: Table 4a
[2] = molecular target: T1, CDK6-CYCLIND3 (Homo sapiens, UniProt Q00534); format: biochemical; conditions: read-out: CDK6 CyclinD3 IC50
T1 construct: purchased Carna

[3] = molecular target: T2, CDK2-CYCLINA (Homo sapiens, UniProt P24941); format: biochemical; conditions: Table 4a; read-out: CDK2 CyclinA IC50
T2 construct: purchased Millipore

[4] = molecular target: T3, CDK9-CYCLINT1 (Homo sapiens, UniProt P50750); format: biochemical; conditions: Table 4a; read-out: CDK9 CyclinT1 IC50
T3 construct: purchased Carna

[5] = molecular target: CDK4-CYCLIND1 (Homo sapiens, UniProt P11802); conditions: a second value in parentheses for some compounds
Protocol: Inhibition assays were performed using microfluidic LabChip 300 Drug Discovery System from Caliper Life Sciences. […] The assay has a total volume of 10 μL consisting of 5 μL of enzyme and buffer and 5 μL of substrate and buffer. The test compounds were diluted in 100% dimethylsulfoxide (DMSO) using 3-fold dilution steps. […] Compounds were tested in a single well for each dilution and the final concentration of DMSO was maintained at 1%.
The assay buffer contained 100 mM HEPES, pH 7.5, 0.01% Triton X-100, 0.1% bovine serum albumin (BSA), 5 mM MgCl2; 1 mM dithiothreitol (DTT), 10 μM sodium orthovanadate, and 10 μM β-glycerophosphate.
The assay was conducted by adding 5 μL of enzyme, adenosine triphosphate (ATP) and buffer to an assay plate. A 100 nL aliquot of the diluted compounds were added to the plate. The assay was initiated by the addition of 5 μL of phosphoenolpyruvate substrate (PEP) in buffer. […] The reaction was terminated by the addition of EDTA. The plates were analyzed using a Caliper LabChip 3000.
Additional inhibition assays were performed as described above.
The assays were conducted as described above for the racemates.

[6] = CDK4 CyclinD1 IC50, Table 4b, lower part

Sequence of CDK7 CyclinH (P50613 whole entry): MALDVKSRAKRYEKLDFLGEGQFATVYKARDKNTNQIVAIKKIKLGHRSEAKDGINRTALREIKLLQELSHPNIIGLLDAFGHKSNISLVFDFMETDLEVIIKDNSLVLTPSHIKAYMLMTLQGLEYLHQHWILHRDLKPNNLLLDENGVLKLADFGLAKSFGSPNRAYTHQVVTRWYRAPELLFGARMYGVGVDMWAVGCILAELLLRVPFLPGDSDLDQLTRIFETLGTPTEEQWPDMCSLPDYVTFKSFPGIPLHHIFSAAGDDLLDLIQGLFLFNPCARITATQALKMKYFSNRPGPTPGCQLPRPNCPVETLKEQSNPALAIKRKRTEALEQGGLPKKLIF
Sequence of CDK7 CyclinH (P51946 whole entry partner): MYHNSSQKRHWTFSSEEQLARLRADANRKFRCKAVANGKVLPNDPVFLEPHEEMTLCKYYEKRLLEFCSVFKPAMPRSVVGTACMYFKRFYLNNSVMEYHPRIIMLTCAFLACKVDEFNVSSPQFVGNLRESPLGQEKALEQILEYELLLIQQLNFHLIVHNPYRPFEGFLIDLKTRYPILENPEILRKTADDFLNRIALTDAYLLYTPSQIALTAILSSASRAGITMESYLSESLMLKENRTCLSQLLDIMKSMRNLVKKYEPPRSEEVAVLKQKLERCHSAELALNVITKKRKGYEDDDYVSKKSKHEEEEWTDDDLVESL
Sequence of CDK7 CyclinH (P51948 whole entry partner): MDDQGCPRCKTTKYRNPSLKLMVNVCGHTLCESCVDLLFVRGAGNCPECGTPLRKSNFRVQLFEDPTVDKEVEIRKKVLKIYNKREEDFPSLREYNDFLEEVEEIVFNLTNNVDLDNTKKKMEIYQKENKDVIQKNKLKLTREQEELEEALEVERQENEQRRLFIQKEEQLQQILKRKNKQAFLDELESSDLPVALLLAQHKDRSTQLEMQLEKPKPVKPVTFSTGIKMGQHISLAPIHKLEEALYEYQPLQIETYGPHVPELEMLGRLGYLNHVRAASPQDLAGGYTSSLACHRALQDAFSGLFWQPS
Sequence of CDK4-CYCLIND1 (P11802 whole entry): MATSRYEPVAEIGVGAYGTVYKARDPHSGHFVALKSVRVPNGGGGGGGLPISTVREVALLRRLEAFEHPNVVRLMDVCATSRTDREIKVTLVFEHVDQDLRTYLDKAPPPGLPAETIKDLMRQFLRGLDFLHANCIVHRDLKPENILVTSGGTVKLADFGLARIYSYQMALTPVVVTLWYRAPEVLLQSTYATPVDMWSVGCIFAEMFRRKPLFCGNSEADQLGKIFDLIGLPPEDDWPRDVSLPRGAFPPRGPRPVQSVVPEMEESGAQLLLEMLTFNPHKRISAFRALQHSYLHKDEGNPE
Sequence of CDK4-CYCLIND1 (P24385 whole entry partner): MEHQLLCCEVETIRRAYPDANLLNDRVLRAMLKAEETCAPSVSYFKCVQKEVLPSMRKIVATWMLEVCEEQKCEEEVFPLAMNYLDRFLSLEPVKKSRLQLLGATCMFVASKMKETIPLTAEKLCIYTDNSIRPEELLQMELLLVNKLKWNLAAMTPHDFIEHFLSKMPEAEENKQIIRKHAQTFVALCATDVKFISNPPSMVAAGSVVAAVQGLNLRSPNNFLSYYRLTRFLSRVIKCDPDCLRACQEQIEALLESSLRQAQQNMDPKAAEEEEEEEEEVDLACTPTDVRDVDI
T1 sequence (Q00534 whole entry): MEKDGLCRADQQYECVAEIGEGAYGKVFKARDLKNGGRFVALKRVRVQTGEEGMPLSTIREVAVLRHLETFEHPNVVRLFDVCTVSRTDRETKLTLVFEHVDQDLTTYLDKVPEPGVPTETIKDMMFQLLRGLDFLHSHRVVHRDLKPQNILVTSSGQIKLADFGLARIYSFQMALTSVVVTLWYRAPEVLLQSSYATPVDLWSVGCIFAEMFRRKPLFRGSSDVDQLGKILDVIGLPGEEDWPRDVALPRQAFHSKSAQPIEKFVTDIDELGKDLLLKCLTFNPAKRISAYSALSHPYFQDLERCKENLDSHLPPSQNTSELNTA
T1 sequence (P30281 whole entry partner): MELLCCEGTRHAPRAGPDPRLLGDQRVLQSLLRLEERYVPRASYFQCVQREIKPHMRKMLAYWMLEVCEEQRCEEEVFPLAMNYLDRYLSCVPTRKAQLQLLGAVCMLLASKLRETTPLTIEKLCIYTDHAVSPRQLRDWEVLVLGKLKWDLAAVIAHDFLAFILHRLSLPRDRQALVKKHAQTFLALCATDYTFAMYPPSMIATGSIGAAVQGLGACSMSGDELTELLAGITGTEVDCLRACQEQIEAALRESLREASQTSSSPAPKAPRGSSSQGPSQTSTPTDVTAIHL
T3 sequence (P50750 whole entry): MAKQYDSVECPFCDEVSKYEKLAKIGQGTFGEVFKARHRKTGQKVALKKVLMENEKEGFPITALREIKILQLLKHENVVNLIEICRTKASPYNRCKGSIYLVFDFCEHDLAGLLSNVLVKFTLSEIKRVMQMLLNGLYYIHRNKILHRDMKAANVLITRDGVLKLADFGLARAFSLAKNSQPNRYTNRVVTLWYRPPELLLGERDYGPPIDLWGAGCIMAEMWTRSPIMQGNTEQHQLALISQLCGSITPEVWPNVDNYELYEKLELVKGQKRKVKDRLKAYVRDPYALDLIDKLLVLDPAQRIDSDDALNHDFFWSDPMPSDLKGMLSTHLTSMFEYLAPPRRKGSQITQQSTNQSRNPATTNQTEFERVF
T3 sequence (O60563 whole entry partner): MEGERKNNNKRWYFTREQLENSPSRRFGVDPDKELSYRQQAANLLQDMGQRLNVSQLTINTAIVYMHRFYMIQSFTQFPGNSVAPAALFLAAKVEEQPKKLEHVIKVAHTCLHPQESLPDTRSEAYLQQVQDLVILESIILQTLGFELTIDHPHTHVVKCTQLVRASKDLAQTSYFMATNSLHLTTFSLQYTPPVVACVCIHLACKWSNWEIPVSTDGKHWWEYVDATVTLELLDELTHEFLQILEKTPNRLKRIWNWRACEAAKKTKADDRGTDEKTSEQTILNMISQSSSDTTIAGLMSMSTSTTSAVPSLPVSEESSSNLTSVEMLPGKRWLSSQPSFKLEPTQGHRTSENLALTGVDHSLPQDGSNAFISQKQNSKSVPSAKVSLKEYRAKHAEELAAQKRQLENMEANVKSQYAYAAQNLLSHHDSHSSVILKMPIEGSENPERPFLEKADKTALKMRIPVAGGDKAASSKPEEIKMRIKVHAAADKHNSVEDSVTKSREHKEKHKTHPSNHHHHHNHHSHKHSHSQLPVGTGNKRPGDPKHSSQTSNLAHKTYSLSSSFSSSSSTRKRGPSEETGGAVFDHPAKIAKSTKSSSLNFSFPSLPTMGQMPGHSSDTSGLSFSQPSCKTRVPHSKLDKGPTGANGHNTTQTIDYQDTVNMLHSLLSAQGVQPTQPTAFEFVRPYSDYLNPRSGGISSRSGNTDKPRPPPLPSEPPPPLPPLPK

SMILES	pIC50 [1]	pIC50 ([2]; Table 4a)	pIC50 [3]	pIC50 [4]	pIC50 ([5]; CDK4 CyclinD1 IC50, Table 4a)	pIC50 ([2]; Table 4b, lower part)	pIC50 [5, 6]
CN1CCN(c2ccc(Nc3ncc4c(n3)N(C3CCCC3)C(=O)[C@]3(CCNC3=O)C4)c(F)c2)CC1 [Example D147, (S)-8-cyclopentyl-2-((2-fluoro-4-(4-methylpiperazin-1-yl)phenyl)amino)-5,8-dihydro-7H-spiro[pyrido[2,3-d]pyrimidine-6,3′-pyrrolidine]-2′,7-dione]	5.37	6.73	6.02	6.29	7.14	–	–
COc1cc(N2CCN(C)CC2)ccc1Nc1ncc2c(n1)N(C1CCCC1)C(=O)[C@]1(CCNC1=O)C2 [Example D166, (S)-8-cyclopentyl-2-((2-methoxy-4-(4-methylpiperazin-1-yl)phenyl)amino)-5,8-dihydro-7H-spiro[pyrido[2,3-d]pyrimidine-6,3′-pyrrolidine]-2′,7-dione]	4.86	7.10	5.73	6.51	–	–	–
O=C1NCC[C@@]12Cc1cnc(Nc3ccc(-c4cn[nH]c4)cc3)nc1N(C1CCCC1)C2=O [Example D168, (S)-2-((4-(1H-pyrazol-4-yl)phenyl)amino)-8-cyclopentyl-5,8-dihydro-7H-spiro[pyrido[2,3-d]pyrimidine-6,3′-pyrrolidine]-2′,7-dione]	5.51	7.52	7.26	8.19	–	–	–
Cn1cc(-c2ccc(Nc3ncc4c(n3)N(C3CCCC3)C(=O)[C@]3(CCNC3=O)C4)cc2)cn1 [Example D169, (S)-8-cyclopentyl-2-((4-(1-methyl-1H-pyrazol-4-yl)phenyl)amino)-5,8-dihydro-7H-spiro[pyrido[2,3-d]pyrimidine-6,3′-pyrrolidine]-2′,7-dione]	5.55	8.03	7.47	8.53	–	–	–

Further lines, results first:

pIC50 [1]	pIC50 ([2]; Table 4a)	pIC50 [3]	pIC50 [4]	pIC50 ([5]; CDK4 CyclinD1 IC50, Table 4a)	pIC50 ([2]; Table 4b, lower part)	pIC50 [5, 6]	SMILES
–	–	–	–	–	8.63	8.81	O=C1NCC[C@@]12Cc1cnc(Nc3ccc(N4CCC(N5CCOCC5)CC4)nc3)nc1N(C1CCCC1)C2=O [Example D193, (S)-8-cyclopentyl-2-((6-(4-morpholinopiperidin-1-yl)pyridin-3-yl)amino)-5,8-dihydro-7H-spiro[pyrido[2,3-d]pyrimidine-6,3′-pyrrolidine]-2′,7-dione]
–	–	–	–	–	7.51	7.76	CC(C)N1CCN(c2ccc(Nc3ncc4c(n3)N(C35CC(C3)C5)C(=O)[C@]3(CCNC3=O)C4)cc2F)CC1 [Example D194, (S)-8-(bicyclo[1.1.1]pentan-1-yl)-2-((3-fluoro-4-(4-isopropylpiperazin-1-yl)phenyl)amino)-5,8-dihydro-7H-spiro[pyrido[2,3-d]pyrimidine-6,3′-pyrrolidine]-2′,7-dione]
–	–	–	–	–	7.47	7.64	CC(C)n1cc(-c2ccc(Nc3ncc4c(n3)N(C3CCCC3)C(=O)[C@]3(CCNC3=O)C4)cc2)cn1 [Example D195, (S)-8-cyclopentyl-2-((4-(1-isopropyl-1H-pyrazol-4-yl)phenyl)amino)-5,8-dihydro-7H-spiro[pyrido[2,3-d]pyrimidine-6,3′-pyrrolidine]-2′,7-dione]
–	–	–	–	–	5.62	5.90	O=C1NCC[C@]12Cc1cnc(Nc3ccc(N4CCNCC4)c(F)c3)nc1N(C13CC(C1)C3)C2=O [Example D196, (R)-8-(bicyclo[1.1.1]pentan-1-yl)-2-((3-fluoro-4-(piperazin-1-yl)phenyl)amino)-5,8-dihydro-7H-spiro[pyrido[2,3-d]pyrimidine-6,3′-pyrrolidine]-2′,7-dione]
–	–	–	–	–	5.27	5.65	CN1CCN(c2ccc(Nc3ncc4c(n3)N(C35CC(C3)C5)C(=O)[C@@]3(CCNC3=O)C4)cc2F)CC1 [Example D197, (R)-8-(bicyclo[1.1.1]pentan-1-yl)-2-((3-fluoro-4-(4-methylpiperazin-1-yl)phenyl)amino)-5,8-dihydro-7H-spiro[pyrido[2,3-d]pyrimidine-6,3′-pyrrolidine]-2′,7-dione]
